According to US9630947B2, “Therapeutic compounds and related methods of use” (OTSUKA PHARMACEUTICAL CO., LTD., priority 2009, dated 2017):

The molecules below were run against T1, purified STEP46 enzyme (Homo sapiens, UniProt P54829) (assay: STEP46 biochemical assay (DiFMUP fluorescence phosphatase assay)). Details: DiFMUP 10 μM, read-out: STEP IC50.
T1 sequence (P54829 1-565): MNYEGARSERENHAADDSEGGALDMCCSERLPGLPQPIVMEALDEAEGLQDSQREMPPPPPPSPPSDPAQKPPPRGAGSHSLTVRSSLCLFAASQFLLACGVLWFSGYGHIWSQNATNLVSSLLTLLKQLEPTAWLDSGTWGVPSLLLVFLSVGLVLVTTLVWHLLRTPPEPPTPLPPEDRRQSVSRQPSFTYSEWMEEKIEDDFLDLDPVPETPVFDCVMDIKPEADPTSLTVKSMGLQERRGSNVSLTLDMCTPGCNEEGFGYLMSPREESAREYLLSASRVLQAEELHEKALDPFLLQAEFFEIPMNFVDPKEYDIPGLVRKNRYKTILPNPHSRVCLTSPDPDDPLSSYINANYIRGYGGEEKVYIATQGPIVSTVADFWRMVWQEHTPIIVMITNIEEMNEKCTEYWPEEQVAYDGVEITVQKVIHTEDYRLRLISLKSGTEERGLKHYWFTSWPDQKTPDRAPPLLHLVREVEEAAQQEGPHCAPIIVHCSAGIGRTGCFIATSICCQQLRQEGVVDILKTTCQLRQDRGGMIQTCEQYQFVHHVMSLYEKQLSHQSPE
Procedure: STEP46 Biochemical Assays
Serial dilutions of compounds were performed in 100% DMSO and 1 uL of compounds were dispensed into 384-well black polystyrene plates (Corning, NY). Compounds were incubated with 24 uL of buffer containing 50 mM Hepes, 1 mM DTT, 0.02% Brij35, 1 ng/well purified STEP46 enzyme for 30 min at room temperature. The reaction was initiated by addition of 25 uL of DiFMUP (6, 8-difluoro-4-methylumbelliferyl phosphate) (InVitrogen, CA) with a final concentration of 10 μM and incubated at 27° C. for 90 min. Final DMSO concentration is 2%. Plates were read with florescence intensity at excitation/emission of 360/460 nm using a PheraStar plate reader (BMG Labtech, NC).
Data were expressed as percentage (%) inhibition of enzyme activity. 0% inhibition is defined as the RFUs (relative fluorescence units) in the absence of compounds and 100% inhibition is defined as RFUs in the absence of STEP46 enzyme. IC50 values of compounds with inhibitory activity against STEP46 were determined by GraphPad Prism (version 4.03) using four parameter logistic equation. Some compounds act as activators. For compounds showing STEP46 enzymatic activation, data are represented as percentage of inhibition but with negative values at three representative concentrations (25, 50 and 100 uM).

| Structure (SMILES) | IC50 [nM] |
| --- | --- |
| COc1ccc2nc(-c3ccnnc3)nc(Nc3ccc(F)c(Cl)c3)c2c1 [Compound 1185] | 1000 to 10000 |
| CNc1nc(-c2cccnc2)nc2cc(-c3cc(F)ccc3F)c(C)cc12 [Compound 1406] | 1000 to 10000 |
| COc1ccc2nc(-c3cccnc3)nc(Nc3nc(-c4cccc(C)c4)cs3)c2c1 [Compound 440] | 1000 to 10000 |
| c1cncc(-c2ccc3nc(-c4cccnc4)nc(Nc4ccc5ccsc5c4)c3c2)c1 [Compound 313] | < 1000 |
| Fc1ccc(Nc2nc(-c3cnccn3)nc3ccccc23)cc1Cl [Compound 1219] | 1000 to 10000 |
| COc1ccc2nc(-c3cccnc3)nc(Nc3ccc4ccsc4c3)c2c1 [Compound 309] | 1000 to 10000 |
| CCOc1ccc2nc(-c3cccnc3)nc(Nc3ccc4c(c3)NC(=O)CC4)c2c1 [Compound 337] | < 1000 |
| Fc1cccc(-c2ccc3nc(-c4cccnc4)nc(Nc4ccc(F)c(Cl)c4)c3c2)c1 [Compound 634] | 1000 to 10000 |
| CNc1nc(-c2cccnc2)nc2ccc(-c3cccc4sccc34)cc12 [Compound 1340] | 1000 to 10000 |
| Cc1cc(Cl)cc2c(Nc3cccc(OC(F)F)c3)nc(-c3ccnnc3)nc12 [Compound 1165] | < 1000 |
| COc1ccc2nc(-c3cccnc3)nc(Nc3ccccc3C(=O)NCc3cccs3)c2c1 [Compound 884] | > 10000 |
| COc1cccc(-c2csc(Nc3nc(-c4cccnc4)nc4ccc(OC)cc34)n2)c1 [Compound 434] | 1000 to 10000 |
| CNc1nc(-c2cccnc2)nc2cc(-c3cccc(C(C)=O)c3)ccc12 [Compound 1350] | 1000 to 10000 |
| COc1ccc2nc(-c3cccnc3)nc(Nc3ccccc3C(=O)NC3CCc4ccccc43)c2c1 (stereo not drawn) [Compound 898] | > 10000 |
| CCOC(=O)c1sc(Nc2nc(-c3cccnc3)nc3ccc(OC)cc23)nc1-c1ccccc1 [Compound 466] | 1000 to 10000 |
| COc1cccc(-c2ccc3c(Nc4ccc(F)c(Cl)c4)nc(-c4cccnc4)nc3c2)c1 [Compound 681] | 1000 to 10000 |
| FC(F)Oc1cc(Cl)cc(Nc2nc(-c3ccnnc3)nc3ccccc23)c1 [Compound 1212] | 1000 to 10000 |
| COc1ccc2nc(-c3cccnc3)nc(Nc3nc(-c4ccc(F)c(F)c4)cs3)c2c1 [Compound 445] | < 1000 |
| FC(F)(F)Oc1cccc(Nc2nc(-c3cnccn3)nc3ccccc23)c1 [Compound 1150] | > 10000 |
| Cc1cccc(CNc2nc(-c3cccnc3)nc3ccc(-c4ccc(F)cc4F)cc23)n1 [Compound 1437] | 1000 to 10000 |
| Fc1ccc(Nc2nc(-c3ccncn3)nc3ccccc23)cc1Cl [Compound 1206] | 1000 to 10000 |
| COc1ccc2nc(-c3cccnc3)nc(Nc3cc(-c4ccc(Cl)cc4)nn3C)c2c1 [Compound 403] | 1000 to 10000 |
| CNc1nc(-c2cccnc2)nc2cc(-c3ccccc3F)c(C)cc12 [Compound 1403] | > 10000 |
| CNc1nc(-c2cccnc2)nc2cc(-c3ccc(C(C)=O)cc3)ccc12 [Compound 1351] | 1000 to 10000 |

| Structure (SMILES) | IC50 [nM] |
| --- | --- |
| CNc1nc(-c2cccnc2)nc2c(C)c(-c3ccc(F)c(F)c3)ccc12 [Compound 1445] | 1000 to 10000 |
| COc1ccc2c(Nc3ccc(F)c(Cl)c3)nc(-c3cnccn3)nc2c1 [Compound 1148] | 1000 to 10000 |
| COc1ccc2nc(-c3cccnc3)nc(Nc3nnc(-c4ccc(Br)cc4)s3)c2c1 [Compound 428] | 1000 to 10000 |
| COc1ccc2nc(-c3cccnc3)nc(Nc3nc(-c4cccc(Cl)c4)cs3)c2c1 [Compound 430] | < 1000 |
| CNc1nc(-c2cccnc2)nc2c(C)c(-c3cccc(F)c3F)ccc12 [Compound 1451] | 1000 to 10000 |
| CNc1nc(-c2ccnnc2)nc2ccc(-c3ccc(F)cc3F)cc12 [Compound 1238] | 1000 to 10000 |
| CNc1nc(-c2cccnc2)nc2cc(-c3cccc(F)c3)c(C)cc12 [Compound 1402] | 1000 to 10000 |
| NC(=O)c1ccccc1Nc1nc(-c2cnccn2)nc2cc(Cl)ccc12 [Compound 1143] | 1000 to 10000 |
| Fc1ccc(Nc2nc(-c3cccnc3)nc3ccc(-c4ccsc4)cc23)cc1Cl [Compound 648] | 1000 to 10000 |
| CN(C)C(=O)COc1ccc2nc(-c3cccnc3)nc(Oc3ccc(Cl)c(Cl)c3)c2c1 [Compound 847] | < 1000 |
| Cc1cc(Cl)cc2c(Nc3cccc(C#N)c3)nc(-c3cnccn3)nc12 [Compound 1228] | 1000 to 10000 |
| CNc1nc(-c2cccnc2)nc2ccc(-c3ccc(OC)cc3)c(C)c12 [Compound 1458] | > 10000 |
| COc1ccc2nc(-c3cccnc3)nc(Nc3ccc4ncsc4c3)c2c1 [Compound 296] | 1000 to 10000 |
| CCOc1ccc2nc(-c3cncnc3)nc(Nc3ccccc3C(N)=O)c2c1 [Compound 1171] | 1000 to 10000 |
| N#Cc1cccc(-c2ccc3c(Nc4ccc(F)c(Cl)c4)nc(-c4cccnc4)nc3c2)c1 [Compound 686] | < 1000 |
| CNc1nc(-c2cccnc2)nc2c(C)c(-c3ccc(OC)cc3)ccc12 [Compound 1455] | 1000 to 10000 |
| FC(F)Oc1cccc(Nc2nc(-c3cncnc3)nc3ccccc23)c1 [Compound 1211] | > 10000 |
| COc1ccc2nc(-c3cccnc3)nc(Nc3cccc(-c4ccccc4)c3)c2c1 [Compound 426] | > 10000 |
| CNc1nc(-c2cccnc2)nc2cc(-c3ccccc3Cl)ccc12 [Compound 1352] | > 10000 |
| COc1ccc2nc(-c3cccnc3)nc(Nc3ccccc3C(=O)NC(C)c3cccc(C(F)(F)F)c3)c2c1 (stereo not drawn) [Compound 888] | > 10000 |
| COc1ccc2nc(-c3cccnc3)nc(Nc3nc(-c4ccc(Cl)cc4)cs3)c2c1 [Compound 400] | 1000 to 10000 |
| CCOc1ccc2nc(-c3cccnc3)nc(Nc3nc(-c4cc(F)ccc4F)cs3)c2c1 [Compound 471] | 1000 to 10000 |
| Fc1ccc(Nc2nc(-c3ccnnc3)nc3cc(Cl)ccc23)cc1F [Compound 1202] | 1000 to 10000 |

The next lines start with the values.

| IC50 [nM] | Structure (SMILES) |
| --- | --- |
| < 1000 | CNC(=O)c1sc(Nc2nc(-c3cccnc3)nc3ccc(OC)cc23)nc1-c1ccccc1 [Compound 1124, 2-(6-methoxy-2-(pyridin-3-yl)quinazolin-4-ylamino)-N-methyl-4-phenylthiazole-5-carboxamide] |
| < 1000 | COc1ncc(-c2ccc3nc(-c4cccnc4)nc(Nc4ccc(F)c(Cl)c4)c3c2)c(OC)n1 [Compound 653] |
| > 10000 | CNc1nc(-c2cccnc2)nc2ccc(-c3cccc(F)c3F)c(C)c12 [Compound 1285] |
| < 1000 | COc1ncc(-c2ccc3nc(-c4cccnc4)nc(Nc4ccc(F)c(Cl)c4)c3c2)cn1 [Compound 666] |
| 1000 to 10000 | CCOc1ccc2nc(-c3cccnc3)nc(Nc3ccc4ccsc4c3)c2c1 [Compound 315] |
| 1000 to 10000 | COc1ccc2c(Nc3ccc(F)c(Cl)c3)nc(-c3ccnnc3)nc2c1 [Compound 1155] |
| 1000 to 10000 | CNc1nc(-c2cccnc2)nc2ccc(-c3cc(OC)ccc3F)cc12 [Compound 1400] |
| 1000 to 10000 | Cc1cc(Cl)cc2c(Nc3ccccc3C(=O)O)nc(-c3cnccn3)nc12 [Compound 1227] |
| 1000 to 10000 | COc1ccc2nc(-c3cccnc3)nc(Nc3ccccc3C(=O)NCc3ccc4c(c3)CCC4)c2c1 [Compound 900] |
| 1000 to 10000 | CN(C)c1nc(-c2cccnc2)nc2ccc(-c3cccc(F)c3F)cc12 [Compound 1380] |
| < 1000 | COc1ccc(-c2csc(Nc3nc(-c4cccnc4)nc4ccc(OC)cc34)n2)cc1 [Compound 435] |
| > 10000 | CNc1nc(-c2cccnc2)nc2cc(-c3ccc(F)cc3)c(C)cc12 [Compound 1404] |
| < 1000 | COc1ccc2nc(-c3cccnc3)nc(Nc3nc(-c4ccccc4C)cs3)c2c1 [Compound 444] |
| < 1000 | COc1cncc(-c2ccc3nc(-c4cccnc4)nc(Nc4ccc(F)c(Cl)c4)c3c2)c1 [Compound 660] |
| < 1000 | CCOc1ccc2nc(-c3cccnc3)nc(Nc3nc(-c4ccc(F)c(F)c4)cs3)c2c1 [Compound 468] |
| > 10000 | CC(=O)c1ccc(-c2ccc3nc(-c4cccnc4)nc(N)c3c2)cc1 [Compound 1327] |
| 1000 to 10000 | CNc1nc(-c2cccnc2)nc2c(C)c(-c3cc(F)ccc3F)ccc12 [Compound 1450] |
| > 10000 | CN(C)c1nc(-c2cccnc2)nc2ccc(-c3cccc(Cl)c3)cc12 [Compound 1333] |
| < 1000 | CN(C)c1ccc(-c2ccc3c(Nc4ccc(F)c(Cl)c4)nc(-c4cccnc4)nc3c2)cc1 [Compound 694] |
| 1000 to 10000 | CCOc1ccc2nc(-c3cccnc3)nc(Nc3nc(-c4cccc(F)c4F)cs3)c2c1 [Compound 470] |
| 1000 to 10000 | CN(C)c1nc(-c2cccnc2)nc2ccc(-c3cccc(F)c3)cc12 [Compound 1324] |
| 1000 to 10000 | CCc1sc(Nc2nc(-c3cccnc3)nc3ccc(OC)cc23)nc1-c1ccccc1 [Compound 463] |
